# Reference: publication PMC6950057, “Toxicity, Pharmacokinetics, and Gut Microbiome of Oral Administration of Sesterterpene MHO7 Derived from a Marine Fungus” (Marine Drugs, 2019)
# System: gut microbiota
# Assay: Gut (cecal) microbiota analysis by 16S rRNA sequencing
# Assay type: in vivo, mice
# Details: for amount of OTUs vs control: p < 0.001; for gut community richness (Sobs index) vs control: p < 0.01
# Experimental: Fresh cecal samples from 24 (n = 6 per group) mice were collected at 1, 8 and 30 h after oral administration of 500 mg·kg^−1 MHO7 meanwhile control group was collected at 8 h after oral the same volume corn oil, respectively. All of the cecal samples were collected in sterile environments and containers, snap-frozen in liquid nitrogen, and then stored at −80 °C.
# Microbial DNA was extracted from 24 cecal samples using the E.Z.N.A.® soil DNA Kit (Omega Bio-tek, Norcross, GA, USA) according to manufacturer’s protocols. The final DNA concentration and purification were determined by NanoDrop 2000 UV-vis spectrophotometer (Thermo Scientific, Wilmington, DE, USA), and DNA quality was checked by 1% agarose gel electrophoresis. The V3-V4 hypervariable regions of the bacteria 16S rRNA gene were amplified with primers 338F (5’- […]-3’) and 806R (5’-[…]-3’) by thermocycler PCR system (GeneAmp 9700, ABI, Foster City, CA, USA). The PCR reactions were conducted using the following program: 3 min of denaturation at 95 °C; 27 cycles of 30 s at 95 °C, 30 s for annealing at 55 °C, and 45 s for elongation at 72 °C; and a final extension at 72 °C for 10 min. PCR reactions were performed in triplicate 20 μL mixture containing 4 μL of 5 × FastPfu Buffer, 2 μL of 2.5 mM·L^−1 dNTPs, 0.8 μL of each primer (5 μM·L^−1), 0.4 μL of FastPfu Polymerase, and 10 ng of template DNA. The resulted PCR products were extracted from a 2% agarose gel and further purified using the AxyPrep DNA Gel Extraction Kit (Axygen Biosciences, Union City, CA, USA) and quantified using QuantiFluor ™ -ST (Promega, Madison, […], USA) according to the manufacturer’s protocol.
# Purified amplicons were pooled in equimolar and paired-end sequenced (2 × 300) on an Illumina MiSeq platform (Illumina, San Diego, CA, USA) according to the standard protocols by Majorbio Bio-Pharm Technology Co. Ltd. (Shanghai, China).
# Raw fastq files were quality-filtered by Trimmomatic and merged by FLASH according to the following criteria: (i) The reads were truncated at any site receiving an average quality score < 20 over a 50 bp sliding window. (ii) Sequences whose overlap was longer than 10 bp were merged according to their overlap with mismatch no more than 2 bp. (iii) Sequences of each sample were separated according to barcodes (exactly matching) and Primers (allowing 2 nucleotide mismatching), and reads containing ambiguous bases were removed. Operational taxonomic units (OTUs) were clustered using UPARSE (version 7.1, http://drive5.com/uparse/) at a 97% similarity level with a novel “greedy” algorithm that performs chimera filtering and OTU clustering simultaneously. The taxonomy of each 16S rRNA gene sequence was analyzed by RDP Classifier algorithm (http://rdp.cme.msu.edu/) against the Silva (SSU123) 16S rRNA database using confidence threshold of 70%.
# [1] = MHO7-1h group, cecal, oral 500 mg·kg^−1
# [2] = MHO7-8h group, cecal, oral 500 mg·kg^−1
# [3] = MHO7-30h group, cecal, oral 500 mg·kg^−1
smiles,measurement,setting,value
"CC(C)=C/C=C/[C@H](C)[C@H]1CC[C@]2(C)C[C@@H]3C(C)=CC(=O)[C@H]3/C(C=O)=C\C[C@@H]12 [MHO7, 6-epi-ophiobolin G]","richness, diversity, OTU number of gut microbiome vs control",MHO7-1 h group,no significant difference
same,"Relative abundance, class Bacilli",[1],10.08±7.69%
same,"Relative abundance, class Clostridia",[1],38.58 ± 11.1%
same,"Relative abundance, class Mollicutes",[1],0.46±0.25%
same,"Relative abundance, class Verrucomicrobiae",[1],0.0019±0.002%
same,"Relative abundance, family Bacteroidales_S24-7_group",[1],33.99±6.67%
same,"Relative abundance, family Lachnospiraceae",[1],27.23±10.42%
same,"Relative abundance, family Lactobacillaceae",[1],10.05±7.69%
same,"Relative abundance, family Rikenellaceae",[1],7.09±0.86%
same,"Relative abundance, family Ruminococcaceae",[1],10.04±1.97%
same,"Relative abundance, family Verrucomicrobiaceae",[1],0.0019±0.0021%
same,"Relative abundance, genus Anaeroplasma",[1],0.12±0.11%
same,"Relative abundance, genus Coprococcus_1",[1],0.19±0.10%
same,"Relative abundance, genus Family_XIII_AD3011_group",[1],0.067±0.041%
same,"Relative abundance, genus Lachnoclostridium",[1],0.51±0.21%
same,"Relative abundance, genus Lactobacillus",[1],10.05±7.69%
same,"Relative abundance, genus Papillibacter",[1],0.0062±0.0066%
same,"Relative abundance, genus Peptococcus",[1],0.010±0.0061%
same,"Relative abundance, genus Prevotellaceae_NK3B31_group",[1],0.46±0.31%
same,"Relative abundance, genus Prevotellaceae_UCG-001",[1],0.78±0.51%
same,"Relative abundance, genus Rikenellaceae_RC9_gut_group",[1],2.82±0.76%
same,"Relative abundance, genus Ruminiclostridium",[1],0.78±0.59%
same,"Relative abundance, genus Ruminiclostridium_5",[1],0.34±0.14%
same,"Relative abundance, genus Ruminiclostridium_9",[1],0.76±0.29%
same,"Relative abundance, genus Ruminococcaceae_NK4A214_group",[1],0.076±0.024%
same,"Relative abundance, genus Ruminococcaceae_UCG-009",[1],0.066±0.050%
same,"Relative abundance, genus Ruminococcaceae_UCG-010",[1],0.12±0.046%
same,"Relative abundance, genus Ruminococcaceae_UCG-014",[1],2.73±0.93%
same,"Relative abundance, genus Ruminococcus_1",[1],1.53±1.04%
same,"Relative abundance, genus Streptococcus",[1],0.023±0.0050%
same,"Relative abundance, genus [Eubacterium]_coprostanoligenes_group",[1],0.13±0.12%
same,"Relative abundance, genus [Eubacterium]_ventriosum_group",[1],0.13±0.089%
same,"Relative abundance, genus g__norank_f__Bacteroidales_S24-7_group",[1],33.99±6.67%
same,"Relative abundance, genus g__norank_f__Christensenellaceae",[1],0.034±0.014%
same,"Relative abundance, genus g__norank_f__Lachnospiraceae",[1],6.456±2.68%
same,"Relative abundance, genus g__norank_f__Ruminococcaceae",[1],0.31±0.22%
same,"Relative abundance, genus norank_o__Mollicutes_RF9",[1],0.34±0.17%
same,"Relative abundance, order Anaeroplasmatales",[1],0.12±0.11%
same,"Relative abundance, order Bacillales",[1],0.0000%
same,"Relative abundance, order Clostridiales",[1],38.54±11.15%
same,"Relative abundance, order Lactobacillales",[1],10.10±7.65%
same,"Relative abundance, order Mollicutes_RF9",[1],0.33±0.16%
same,"Relative abundance, order Verrucomicrobiales",[1],0.0022±0.0027%
same,"Relative abundance, phylum Deferribacteres",[1],0.14±0.12%
same,"Relative abundance, phylum Proteobacteria",[1],0.18±0.045%
same,"Relative abundance, phylum Saccharibacteria",[1],0.47±0.28%
same,"Relative abundance, phylum Tenericutes",[1],0.46±0.25%
same,gut community diversity (Shannon index) vs control,"MHO7-8 h group, OTU level, p < 0.05",decreased significantly
same,amount of OTUs vs control,MHO7-8 h group,remarkable reduction
same,gut community richness (Sobs index) vs control,MHO7-8 h group,remarkable reduction
same,"Relative abundance, class Bacilli",[2],11.49±12.09%
same,"Relative abundance, class Clostridia",[2],28.98 ± 20.11%
same,"Relative abundance, class Mollicutes",[2],0.0075±0.0048%
same,"Relative abundance, class Verrucomicrobiae",[2],0.80±1.18%
same,"Relative abundance, family Bacteroidales_S24-7_group",[2],33.65±5.47%
same,"Relative abundance, family Lachnospiraceae",[2],21.66±15.88%
same,"Relative abundance, family Lactobacillaceae",[2],11.34±12.11%
same,"Relative abundance, family Rikenellaceae",[2],3.66±2.13%
same,"Relative abundance, family Ruminococcaceae",[2],6.20±4.57%
same,"Relative abundance, family Verrucomicrobiaceae",[2],0.80±1.18%
same,"Relative abundance, genus Coprococcus_1",[2],0.21±0.17%
same,"Relative abundance, genus Family_XIII_AD3011_group",[2],0.0069±0.0077%
same,"Relative abundance, genus Lachnoclostridium",[2],0.81±0.61%
same,"Relative abundance, genus Lactobacillus",[2],11.34±12.11%
same,"Relative abundance, genus Papillibacter",[2],0.0025±0.0061%
same,"Relative abundance, genus Peptococcus",[2],0.0050±0.010%
same,"Relative abundance, genus Prevotellaceae_NK3B31_group",[2],2.54±2.44%
same,"Relative abundance, genus Prevotellaceae_UCG-001",[2],4.09±3.41%
same,"Relative abundance, genus Rikenellaceae_RC9_gut_group",[2],0.088±0.089%
same,"Relative abundance, genus Ruminiclostridium",[2],0.36±0.31%
same,"Relative abundance, genus Ruminiclostridium_5",[2],0.21±0.21%
same,"Relative abundance, genus Ruminiclostridium_9",[2],0.60±0.59%
same,"Relative abundance, genus Ruminococcaceae_NK4A214_group",[2],0.023±0.021%
same,"Relative abundance, genus Ruminococcaceae_UCG-009",[2],0.063±0.072%
same,"Relative abundance, genus Ruminococcaceae_UCG-010",[2],0.036±0.042%
same,"Relative abundance, genus Ruminococcaceae_UCG-014",[2],0.19±0.25%
same,"Relative abundance, genus Ruminococcus_1",[2],0.38±0.32%
same,"Relative abundance, genus Staphylococcus",[2],0.066±0.060%
same,"Relative abundance, genus Streptococcus",[2],0.029±0.016%
same,"Relative abundance, genus Sutterella",[2],0.0069±0.010%
same,"Relative abundance, genus [Eubacterium]_coprostanoligenes_group",[2],0.22±0.23%
same,"Relative abundance, genus [Eubacterium]_ventriosum_group",[2],0.012±0.020%
same,"Relative abundance, genus g__norank_f__Bacteroidales_S24-7_group",[2],33.65±5.47%
same,"Relative abundance, genus g__norank_f__Christensenellaceae",[2],0.011±0.0079%
same,"Relative abundance, genus g__norank_f__Lachnospiraceae",[2],7.54±4.66%
same,"Relative abundance, genus g__norank_f__Ruminococcaceae",[2],0.31±0.26%
same,"Relative abundance, genus norank_o__Mollicutes_RF9",[2],0.0075±0.0047%
same,"Relative abundance, order Anaeroplasmatales",[2],0.00028±0.00068%
same,"Relative abundance, order Bacillales",[2],0.071±0.067%
same,"Relative abundance, order Clostridiales",[2],28.89±20.03%
same,"Relative abundance, order Lactobacillales",[2],11.34±12.02%
same,"Relative abundance, order Mollicutes_RF9",[2],0.0057±0.0040%
same,"Relative abundance, order Verrucomicrobiales",[2],0.78±1.15%
same,"Relative abundance, phylum Deferribacteres",[2],0.0044±0.0050%
same,"Relative abundance, phylum Proteobacteria",[2],2.05±1.47%
same,"Relative abundance, phylum Saccharibacteria",[2],0.35±0.61%
same,"Relative abundance, phylum Tenericutes",[2],0.0075±0.0047%
same,amount of OTUs vs control,MHO7-30 h group,remarkable reduction
same,gut community richness (Sobs index) vs control,MHO7-30 h group,remarkable reduction
same,"Relative abundance, class Bacilli",[3],3.25±3.05%
same,"Relative abundance, class Clostridia",[3],47.82 ± 20.66%
same,"Relative abundance, class Mollicutes",[3],0.0012±0.0031%
same,"Relative abundance, class Verrucomicrobiae",[3],2.51±3.67%
same,"Relative abundance, family Bacteroidales_S24-7_group",[3],19.34±6.97%
same,"Relative abundance, family Lachnospiraceae",[3],42.58±19.32%
same,"Relative abundance, family Lactobacillaceae",[3],3.21±2.99%
same,"Relative abundance, family Rikenellaceae",[3],3.19±2.16%
same,"Relative abundance, family Ruminococcaceae",[3],4.13±1.97%
same,"Relative abundance, family Verrucomicrobiaceae",[3],2.51±3.67%
same,"Relative abundance, genus Coprococcus_1",[3],0.11±0.068%
same,"Relative abundance, genus Family_XIII_AD3011_group",[3],0.021±0.014%
same,"Relative abundance, genus Lachnoclostridium",[3],2.42±2.02%
same,"Relative abundance, genus Lactobacillus",[3],3.21±2.99%
same,"Relative abundance, genus Papillibacter",[3],0.00062±0.0015%
same,"Relative abundance, genus Peptococcus",[3],0.0050±0.0056%
same,"Relative abundance, genus Prevotellaceae_NK3B31_group",[3],0.14±0.19%
same,"Relative abundance, genus Prevotellaceae_UCG-001",[3],1.07±1.13%
same,"Relative abundance, genus Rikenellaceae_RC9_gut_group",[3],0.042±0.084%
same,"Relative abundance, genus Ruminiclostridium",[3],0.079±0.076%
same,"Relative abundance, genus Ruminiclostridium_5",[3],0.27±0.23%
same,"Relative abundance, genus Ruminiclostridium_9",[3],0.41±0.20%
same,"Relative abundance, genus Ruminococcaceae_NK4A214_group",[3],0.020±0.023%
same,"Relative abundance, genus Ruminococcaceae_UCG-009",[3],0.012±0.015%
same,"Relative abundance, genus Ruminococcaceae_UCG-010",[3],0.0062±0.0061%
same,"Relative abundance, genus Ruminococcaceae_UCG-014",[3],0.022±0.030%
same,"Relative abundance, genus Ruminococcus_1",[3],0.071±0.15%
same,"Relative abundance, genus Streptococcus",[3],0.0025±0.0031%
same,"Relative abundance, genus Sutterella",[3],0.090±0.090%
same,"Relative abundance, genus [Eubacterium]_coprostanoligenes_group",[3],0.28±0.50%
same,"Relative abundance, genus [Eubacterium]_ventriosum_group",[3],0.022±0.041%
same,"Relative abundance, genus g__norank_f__Bacteroidales_S24-7_group",[3],19.34±6.97%
same,"Relative abundance, genus g__norank_f__Christensenellaceae",[3],0.0069±0.0087%
same,"Relative abundance, genus g__norank_f__Lachnospiraceae",[3],19.81±11.07%
same,"Relative abundance, genus g__norank_f__Ruminococcaceae",[3],0.16±0.13%
same,"Relative abundance, genus norank_o__Mollicutes_RF9",[3],0.0012±0.0031%
same,"Relative abundance, order Anaeroplasmatales",[3],0.00000%
same,"Relative abundance, order Bacillales",[3],0.00034±0.00084%
same,"Relative abundance, order Clostridiales",[3],47.86±20.61%
same,"Relative abundance, order Lactobacillales",[3],3.26±3.04%
same,"Relative abundance, order Mollicutes_RF9",[3],0.0014±0.0025%
same,"Relative abundance, order Verrucomicrobiales",[3],2.52±3.65%
same,"Relative abundance, phylum Deferribacteres",[3],0.25±0.23%
same,"Relative abundance, phylum Proteobacteria",[3],1.34±1.58%
same,"Relative abundance, phylum Saccharibacteria",[3],0.0069±0.0055%
same,"Relative abundance, phylum Tenericutes",[3],0.0013±0.0031%
same,abundance of dominant phyla Firmicutes and Bacteroidetes,"at 1, 8 or 30 h after oral administration",no significant differences
